# According to patent US20250241916A1, “TYROSINE KINASE INHIBITORS” (Nuvectis Pharma, Inc., priority 2022, published 2025):
# Assays:
# [1] = test system: pan cancer squamous lines; assay: Sensitivity of cancer cell line panel (102 cell lines) to compound; format: cell-based; conditions: FIG. 1, p<0.05
# Description: Examples of squamous cell carcinomas contemplated herein may include, but are not limited to, cutaneous squamous cell carcinoma, esophageal squamous cell carcinoma, head and neck squamous cell carcinoma, squamous cell carcinoma of the vulva, and lung squamous cell carcinoma.
# A shift to the left represents increased sensitivity. Size of circles represents number of cell lines with alteration (minimum of cell lines per alteration).
# [2] = biological target: T1, full-length human BTK (GST-BTK) (Homo sapiens, UniProt Q06187); assay: Off-chip Mobility Shift Assay (MSA), tyrosine kinase inhibition, BTK; format: biochemical; conditions: for inhibition at 0.5 µM: 0.5 μM compound
# T1 construct: made in house
# Method: (§1) Compound A was dissolved in dimethylsulfoxide (DMSO), and further diluted with assay buffer to a final concentration of 0.5 μmol/L. Reference compounds for assay control were prepared similarly. For BTK inhibition studies, full-length human BTK [2-659 (end) amino acids of accession number NP_000052] was expressed as N-terminal GST-fusion protein (103 kDa) using baculovirus expressionsystem. GST-BTK was purified by using glutathione sepharose chromatography. For BTK[C481S] inhibition studies, full-length human BTK [2-659 (end) amino acids and C481S of accession number NP_000052] was expressed as N-terminal GST-fusion protein (103 kDa) using baculovirusexpression system. GST-BTK[C481S] was purified by using glutathione sepharosechromatography.
# (§2) A 4× Substrate/ATP/Metal solution was prepared with buffer (20 mmol/L HEPES, 0.01% Triton X-100, 5 mmol/L DTT, pH 7.5), and a 2× kinase solution was also prepared with buffer (20 mmol/L HEPES, 0.01% Triton X-100, 1 mmol/L DTT, pH 7.5). 5 μL of 4× compound solution, 5 μL of 4× Substrate/ATP/Metal solution, and 10 μL of 2× kinase solution were mixed and incubated in a well of polypropylene 384 well microplate for 1 hour at room temperature. 70 μL of Termination Buffer (QuickScout Screening Assist MSA) was added to the well. The reaction mixture was applied to LabChip™ system, and the product and substrate peptide peaks were separated and quantitated. The kinase reaction was evaluated by the product ratio calculated from peak heights of product (P) and substrate (S) peptides (P/(P+S)).
# (§3) The readout value of reaction control (complete reaction mixture) was set as a 0% inhibition, and the readout value of background (Enzyme(−)) was set as a 100% inhibition, then the percent inhibition of each test solution was calculated (Table 2).
# [3] = biological target: T2, full-length human BTK[C481S] (GST-BTK[C481S]) (Homo sapiens, UniProt Q06187, C481S); assay: Off-chip Mobility Shift Assay (MSA), tyrosine kinase inhibition, BTK[C481S]; format: biochemical; conditions: for inhibition at 0.5 µM: 0.5 μM compound
# T2 construct: made in house
# Method: as §1, §2, §3
# [4] = test system: Cal27 (tongue squamous cell carcinoma) xenograft; assay: Cal27 mouse xenograft model, antitumor efficacy
# Method: (§4) Prior to the in-life phase of the study, the animals were weighed and examined for signs of physical disorder. […] Tumor reads were collected every 2 days up to 28 days, starting treatment at 100 mm^3 tumor volume and ending at 2000 mm^3 tumor volume. A t-test was applied to determine the significance of differences in tumor volumes.
# (§5) Dose materials were prepared weekly in aliquots and stored frozen at −20° C. until dosing. For enrollment of mice into study, subcutaneous tumor volumes were monitored daily until reaching a minimum palpable tumor volume (˜100 mm3 by caliper) in the required number of mice. […] Following randomization and study cohort assignment, each dose cohort was treated according to dosage and schedule. Mice were euthanized when study end points were reached.
# (§6) Tumor volume measurements were performed every 2 days (up to 3 times per week) using a calibrated caliper. Tumor volumes were determined using the formula length (mm)×width (mm)×height (mm)×0.50.
# (§7) A tumor volume humane endpoint was reached when a 20% loss in body weight (excluding tumor weight) was observed over a week, or a 15% loss in body weight over 2 to 3 day period, or if a body condition score less than 2 (Body Condition Scoring for scoring guide), or the tumor weight exceeded 10% of the non-tumor bearing body weight (tumor weight was calculated based on tumor height×length×width×0.50×density of 1 g/cm^3) or when the tumor exceeded 2000 mm^3 in size. Body weight measurements were performed every 2 days (up to 3 times per week) during the 28-day treatment period to coincide with tumor volume measurement schedule. A humane endpoint was reached when body weight loss exceeded 20%.
# (§8) The abbreviation RTV28 (relative tumor volume, day 28)=[avg. tumor volume D28]/[avg. tumor volume at baseline]. The abbreviation TGI % (percent tumor growth inhibition)=(1−[RTV28 of the treated group]/[RTV28 vehicle])×100.
# [5] = test system: KYSE70 (esophageal squamous cell carcinoma) xenograft; assay: KYSE70 mouse xenograft model, antitumor efficacy; conditions: for Avg. Baseline Tumor Volume: 40 mg/kg
# Method: as §4, §5, §6, §7, §8
# [6] = 40 mg/kg oral once daily, 28 days, p≤0.001 vs vehicle on Day 27
# [7] = (1-RTV28 treated/RTV28 vehicle)x100, 40 mg/kg oral once daily
# [8] = Day 27, 40 mg/kg oral once daily
# [9] = Day 28, 40 mg/kg oral once daily
# [10] = avg. tumor volume D28 / baseline, 40 mg/kg oral once daily
# T1 sequence (Q06187 2-659): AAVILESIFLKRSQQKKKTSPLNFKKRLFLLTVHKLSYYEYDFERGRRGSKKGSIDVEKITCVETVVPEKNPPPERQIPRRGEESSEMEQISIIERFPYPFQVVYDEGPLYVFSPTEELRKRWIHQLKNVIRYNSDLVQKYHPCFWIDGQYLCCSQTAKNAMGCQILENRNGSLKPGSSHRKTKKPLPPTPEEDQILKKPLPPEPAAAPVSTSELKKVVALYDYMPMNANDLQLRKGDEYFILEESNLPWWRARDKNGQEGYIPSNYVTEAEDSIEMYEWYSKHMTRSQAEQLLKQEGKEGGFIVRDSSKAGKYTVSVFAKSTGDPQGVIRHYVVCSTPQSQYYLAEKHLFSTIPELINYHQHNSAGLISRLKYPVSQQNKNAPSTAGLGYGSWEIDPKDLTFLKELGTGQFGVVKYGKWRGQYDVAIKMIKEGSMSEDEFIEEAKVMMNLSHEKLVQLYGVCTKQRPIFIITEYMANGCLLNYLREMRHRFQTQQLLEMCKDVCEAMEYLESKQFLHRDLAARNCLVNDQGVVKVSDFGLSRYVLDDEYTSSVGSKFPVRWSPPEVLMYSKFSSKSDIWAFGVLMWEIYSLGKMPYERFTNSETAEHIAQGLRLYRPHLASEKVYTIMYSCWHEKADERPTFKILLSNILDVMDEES
# T2 sequence (Q06187 2-659 C481S): as the sequence (Q06187 2-659) above, with C480S counted along it
structure (smiles),measurement,setting,value
"COc1cc(-c2nn(CCN3CCC(N(C)C)CC3)c3ncnc(N)c23)ccc1NC(=O)OC(C)(C)C [Compound A, tert-Butyl (4-(4-amino-1-(2-(4-(dimethylamino)piperidin-1-yl)ethyl)-1H-pyrazolo[3,4-d]pyrimidin-3-yl)-2-methoxyphenyl)carbamate]",sensitivity of pan cancer squamous carcinomas (10logIC50),[1],high sensitivity
same,IC50,[2],12.5 nM
same,inhibition at 0.5 µM,[2],96.9%
same,IC50,[3],16.3 nM
same,inhibition at 0.5 µM,[3],95.1%
same,tumor growth inhibition,[4]; [6],substantial TGI
same,Tumor Growth Inhibition (TGI),[4]; [7],86%
same,average tumor volume on Day 27,[4]; [8],91.4 mm3
same,mean percent increase from baseline in body weight,[4]; [8],2.1%
same,Avg. Day 28. Tumor Volume,[4]; [9],91.4 mm^3
same,Relative Tumor Volume (RTV28),[4]; [10],0.78
same,Avg. Baseline Tumor Volume,"[4]; baseline, 40 mg/kg oral once daily",116.2 mm^3
same,tumor growth inhibition,[5]; [6],substantial tumor growth inhibition
same,Tumor Growth Inhibition (TGI),[5]; [7],95%
same,average tumor volume on Day 27,[5]; [8],31.5 mm^3
same,mean percent increase from baseline in body weight,[5]; [8],2.0%
same,decrease in tumor volume from baseline,"[5]; Day 27 vs baseline, 40 mg/kg oral once daily",71%
same,Avg. Day 28. Tumor Volume,[5]; [9],31.5 mm^3
same,Relative Tumor Volume (RTV28),[5]; [10],0.29
same,Avg. Baseline Tumor Volume,[5]; 40 mg/kg oral once daily,109.8 mm^3
same,Avg. Baseline Tumor Volume,"[5]; 40 mg/kg oral once daily, listed as Cmpd A",106.0 mm^3
"CNC1CCN(CCn2nc(-c3ccc(NC(=O)OC(C)(C)C)c(OC)c3)c3c(N)ncnc32)CC1 [Compound B, tert-butyl (4-(4-amino-1-(2-(4-(methylamino)piperidin-1-yl)ethyl)-1H-pyrazolo[3,4-d]pyrimidin-3-yl)-2-methoxyphenyl) carbamate]",IC50,[2],12.5 nM
same,inhibition at 0.5 µM,[2],95.6%
same,IC50,[3],16.3 nM
same,inhibition at 0.5 µM,[3],97.5%
